This is an account of results in patent publication US9975861B2, “Dual inhibitor compounds for use in the treatment of neurodegenerative disorders and alzheimer's disease” (FONDAZIONE ISTITUTO ITALIANO DI TECNOLOGIA, priority 2014, dated 2018).

One series has as its system glial and neuronal cells. The series is described as follows: MTT assay, viability of brain cells in primary cultures. It is filed as cell-based, rat. The following applies: 0, 10, 20 and 50 μM for 24 hours; up to 50 μM; microglia, astrocytes, cerebellar granular neurons (FIGS. 4a-4c). The procedure: Mixed glial cell cultures were prepared from cerebral cortex of newborn Wistar rats (Rattus norvegicus), as previously described [Monti, B.; D'Alessandro, C.; Farini, V.; Bolognesi, A.; Polazzi, E.; Contestabile, A.; Stirpe, F.; Battelli, M. G. In vitro and in vivo toxicity of type 2 ribosome-inactivating proteins lanceolin and stenodactylin on glial and neuronal cells. Neurotoxicology 2007, 28, 637-644]. Briefly, brain tissue was cleaned from meninges, trypsinized for 15 minutes at 37° C. and, after mechanical dissociation, the cell suspension was washed and plated on poly-L-lysine (Sigma-Aldrich, St. Louis, Mo., USA, 10 μg/mL) coated flasks (75 cm^2). Mixed glial cells were cultured for 10-13 days in Basal Medium Eagle (BME, Life technologies Ltd, Paisley, UK) supplemented with 100 mL/L heat-inactivated FBS (Life technologies), 2 mmol/L glutamine (Sigma-Aldrich) and 100 μmol/L gentamicin sulfate (Sigma-Aldrich). […]
Neurotoxicology 2007, 28, 637-44]. […] Following a 20 minutes incubation for CGNs and 2 hours for glial cells at 37° C. in the dark, the MTT precipitate was dissolved in 0.1 M Tris-HCl buffer containing 5% Triton X-100 (all from Sigma-Aldrich) and absorbance was read at 570 nm in a multiplate spectophotometric reader (Bio-Rad).
(In general: Formazan colour is commonly taken as a measure of viable cells.)

The target of a further series is β-secretase (BACE-1) (Homo sapiens (Human), UniProt P56817). The series is described as follows: Inhibition of BACE-1 (fluorogenic APP-mimicking peptide substrate). The settings on record: BACE-1 IC50 (μM), substrate 3 μM, 1 hour pre-incubation at rt, 15 minutes at 37° C.
In another series the target is Human recombinant GSK-3β (Homo sapiens (Human), UniProt P49841). Briefly: Inhibition of GSK-3β (Kinase-Glo luminescent kinase assay). In kind it is biochemical. The following applies: 1 μM ATP, 25 μM substrate, 30 minutes at 30° C. As to the method:
Human recombinant GSK-3β was purchased from Millipore (Millipore Iberica S.A.U.) The prephosphorylated polypeptide substrate was purchased from Millipore (Millipore Iberica SAU). Kinase-Glo Luminescent Kinase Assay was obtained from Promega (Promega Biotech Iberica, SL). ATP and all other reagents were from Sigma-Aldrich. Assay buffer contained 50 mM 4-(2-hydroxyethyl)-1-piperazineethanesulfonic acid (HEPES) (pH 7.5), 1 mM ethylenediaminetetraacetic acid (EDTA), 1 mM ethylene glycol tetraacetic acid (EGTA), and 15 mM magnesium acetate. The method developed by Baki was followed [Baki et al. Assay and Drug Development Technologies 2007, 5(1),75-83] to analyze the inhibition of GSK-3β. Kinase-Glo assays were performed in assay buffer using white 96-well plates. In a typical assay, 10 μL (10 μM) of test compound (dissolved in DMSO at 1 mM concentration and diluted in advance in assay buffer to the desired concentration) and 10 μL (20 ng) of enzyme were added to each well followed by 20 μL of assay buffer containing 25 μM substrate and 1 μM adenosine triphosphate (ATP). […] After a 30 minutes incubation at 30° C., the enzymatic reaction was stopped with 40 μL of Kinase-Glo reagent. Glow-type luminescence was recorded after 10 minutes using a Fluoroskan Ascent multimode reader.
The activity is proportional to the difference of the total and consumed ATP.
In general terms: Kinase-Glo measures the ATP left after a reaction by luminescence.

By IC50 is commonly meant the concentration at which inhibition is half-maximal.

Chain of Human recombinant GSK-3β (P49841 whole entry): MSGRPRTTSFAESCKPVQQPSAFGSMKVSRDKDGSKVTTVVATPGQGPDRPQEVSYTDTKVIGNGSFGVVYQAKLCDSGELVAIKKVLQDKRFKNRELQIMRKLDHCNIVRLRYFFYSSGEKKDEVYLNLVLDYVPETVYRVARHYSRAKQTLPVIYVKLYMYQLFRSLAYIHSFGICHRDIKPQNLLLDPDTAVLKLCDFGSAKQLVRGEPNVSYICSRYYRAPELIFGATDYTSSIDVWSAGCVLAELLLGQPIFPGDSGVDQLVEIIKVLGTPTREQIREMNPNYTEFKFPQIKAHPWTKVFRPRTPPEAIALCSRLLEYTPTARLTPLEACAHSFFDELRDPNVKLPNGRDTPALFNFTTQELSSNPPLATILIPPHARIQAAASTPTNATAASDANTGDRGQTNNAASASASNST
Chain of β-secretase (BACE-1) (P56817 46-501): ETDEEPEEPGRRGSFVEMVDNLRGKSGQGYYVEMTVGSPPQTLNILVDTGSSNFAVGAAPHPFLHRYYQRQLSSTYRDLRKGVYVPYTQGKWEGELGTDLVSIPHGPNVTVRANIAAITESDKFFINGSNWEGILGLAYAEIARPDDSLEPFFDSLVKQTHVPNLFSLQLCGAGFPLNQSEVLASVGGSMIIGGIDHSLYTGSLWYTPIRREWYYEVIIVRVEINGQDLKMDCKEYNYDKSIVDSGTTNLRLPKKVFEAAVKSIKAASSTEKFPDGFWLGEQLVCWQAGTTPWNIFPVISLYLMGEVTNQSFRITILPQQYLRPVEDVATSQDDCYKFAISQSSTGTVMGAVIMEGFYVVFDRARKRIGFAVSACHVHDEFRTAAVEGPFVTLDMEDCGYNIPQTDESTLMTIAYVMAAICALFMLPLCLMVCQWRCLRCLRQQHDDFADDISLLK
Experimental for β-secretase (BACE-1): β-secretase (BACE-1, Sigma-Aldrich) inhibition studies were performed by employing a peptide mimicking APP sequence as substrate (Methoxycoumarin-[sequence]dinitrophenyl, M-2420, Bachem, Germany). The following procedure was employed: 5 μL of test compounds (or DMSO, if preparing a control well) were pre-incubated with 175 μL of enzyme (in 20 mM sodium acetate containing 3-[(3-Cholamidopropyl)dimethylammonio]-1-propanesulfonate (CHAPS) 0.1% w/v) for 1 hour at rt. The substrate (3 μM, final concentration) was then added and left to react for 15 minutes at 37° C. The fluorescence signal was read at λem=405 nm (λexc=320 nm) using a Fluoroskan Ascent. […] The fluorescence intensities with and without inhibitor were compared and the percent inhibition due to the presence of test compounds was calculated. The background signal was measured in control wells containing all the reagents, except BACE-1 and subtracted. The % inhibition due to the presence of increasing test compound concentration was calculated by the following expression: 100−(IFi/IFo×100) where IFi and IFo are the fluorescence intensities obtained for BACE-1 in the presence and in the absence of inhibitor, respectively. […] The linear regression parameters were determined and the IC50 extrapolated (GraphPad Prism 4.0, GraphPad Software Inc.).

On to `CCNC1=NC(c2ccc(F)cc2)NC(=O)N1` (racemic) [Example 3, 6-(ethylamino)-4-(4-fluorophenyl)-3,4-dihydro-1,3,5-triazin-2(1H)-one], for which the “toxicity in glial and neuronal cells (MTT viability)” value in the series on glial and neuronal cells is given as “did not display any toxicity”.

With `CCCNC1=NC(c2ccc(F)cc2)NC(=O)N1` (stereo not shown) [Example 6, 4-(4-fluorophenyl)-6-(propylamino)-3,4-dihydro-1,3,5-triazin-2(1H)-one], the figures for the IC50 on β-secretase (BACE-1) and at Human recombinant GSK-3β were 36.8 ± 9.85 µM and 4.34 ± 0.63 µM, respectively. The “toxicity in glial and neuronal cells (MTT viability)” value in the series with glial and neuronal cells was “did not display any toxicity”.
